Laboratory results taken from patent EP2650284A1, “Heterocyclic derivatives as metabotropic glutamate receptor modulators” (Merz Pharma GmbH & Co. KGaA, priority 2012, dated 2013).
Read-outs that look alike come from different tables or passages of the source.

Legend:
[1] = molecular target: T1, human metabotropic glutamate receptor mGluR5 (Homo sapiens, UniProt P41594); test: Cytosolic calcium studies with stably transfected cells (h5CHO), functional assay of mGluR5 receptors; type: cell-based; conditions: for h left shift / IC50: h5CHO cells; for EC50: positive modulators, h5CHO cells preincubated with modulator, stimulated by an EC20 concentration of L-glutamate, read-out: hEC50; for IC50: Table A2, negative modulation, compounds added 5 minutes before L-quisqualic acid (~80% of the maximal signal), read-out: hIC50
T1 construct: expressed in transfected cells; host or cells: CHO-K1 (h5CHO), IPTG-inducible
T1 sequence (P41594 21-1212): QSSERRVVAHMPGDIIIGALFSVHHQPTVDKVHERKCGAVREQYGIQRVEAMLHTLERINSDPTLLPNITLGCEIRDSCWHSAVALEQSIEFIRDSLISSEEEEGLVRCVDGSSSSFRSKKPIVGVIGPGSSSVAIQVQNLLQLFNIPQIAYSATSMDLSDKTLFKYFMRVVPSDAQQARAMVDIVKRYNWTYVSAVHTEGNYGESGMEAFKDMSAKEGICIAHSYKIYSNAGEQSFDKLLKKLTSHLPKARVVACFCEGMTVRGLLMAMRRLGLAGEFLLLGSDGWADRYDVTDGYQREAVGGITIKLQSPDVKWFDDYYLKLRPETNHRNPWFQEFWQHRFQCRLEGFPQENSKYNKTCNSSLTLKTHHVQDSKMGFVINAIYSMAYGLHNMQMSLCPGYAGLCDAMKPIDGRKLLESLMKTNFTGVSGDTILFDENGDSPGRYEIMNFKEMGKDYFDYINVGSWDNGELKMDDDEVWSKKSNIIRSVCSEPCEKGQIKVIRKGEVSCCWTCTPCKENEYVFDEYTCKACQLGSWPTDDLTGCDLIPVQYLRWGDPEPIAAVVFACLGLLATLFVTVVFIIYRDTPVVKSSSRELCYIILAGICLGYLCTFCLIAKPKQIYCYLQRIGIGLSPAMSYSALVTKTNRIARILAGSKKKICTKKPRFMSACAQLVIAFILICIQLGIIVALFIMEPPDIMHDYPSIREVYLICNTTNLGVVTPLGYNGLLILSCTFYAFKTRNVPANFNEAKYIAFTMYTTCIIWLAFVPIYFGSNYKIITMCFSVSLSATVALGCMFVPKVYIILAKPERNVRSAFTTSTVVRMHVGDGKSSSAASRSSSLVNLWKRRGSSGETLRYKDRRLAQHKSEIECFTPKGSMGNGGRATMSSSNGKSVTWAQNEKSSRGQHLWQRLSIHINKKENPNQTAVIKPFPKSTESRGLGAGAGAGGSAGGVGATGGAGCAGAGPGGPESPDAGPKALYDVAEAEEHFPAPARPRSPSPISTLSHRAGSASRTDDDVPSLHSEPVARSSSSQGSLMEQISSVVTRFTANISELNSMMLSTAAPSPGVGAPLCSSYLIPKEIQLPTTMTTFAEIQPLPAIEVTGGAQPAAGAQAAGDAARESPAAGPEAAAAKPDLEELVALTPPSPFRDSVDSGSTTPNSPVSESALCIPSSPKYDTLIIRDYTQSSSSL
Description: Chinese hamster ovary cells (CHO-K1 cells), stably transfected for inducible expression of a human metabotropic glutamate receptor mGluR5 to form a cell line called h5CHO, are seeded into black clear bottom 96 well plates at a density of 35.000 cells per well. The standard growth medium used (Dulbecco's modified Eagle Medium, DMEM plus L-proline) contains the appropriate inducer isopropyl-β-D-thiogalactopyranosid (IPTG) to achieve optimal receptor expression. One day after seeding the growth medium is exchanged for reconstituted Ca-Kit (Molecular Devices, USA) and incubated for one hour. Ca-Kit is reconstituted in an assay buffer containing 20 mM HEPES pH 7.4, glutamic-pyruvate transaminase, pyridoxal phosphate and sodium pyruvate in Hank's balanced salt solution (HBBS). Agonistic compounds to the receptor elicit increases in cytosolic calcium which can be measured as increases in fluorescence signals by use of a fluorescence imaging plate reader (Molecular Devices). To analyze their potency to negatively modulate the Ca-response test compounds, dissolved in a final DMSO concentration of 0.5%, are added on-line 5 minutes before the agonist to the receptor (L-quisqualic acid at a concentration giving ~80% of the maximal signal). EC50 values for positive allosteric modulators were determined by stimulating the cells which have been preincubated the modulators by an EC20 concentration of L-glutamate.
(§1) The fluorescence signal increase after addition of agonist reflects the increase of cytosolic calcium. Inconsistencies in the amount of cells per well are normalised by using the spatial uniformity correction of the FLIPR operating software Screenworks. The mean of replicated temporal data (n=3-5) is calculated and used for graphical representation. For the evaluation of the pharmacology, the calcium changes in response to different concentrations of agonist or antagonist are determined using a maximum minus minimum (MaxMin) calculation.
(§2) All responses (RFU-values) are determined as percentage of control (= maximum response). EC50 and IC50 are calculated according the logistic equation using XLFit (IDBS, UK) or Prism 4.0 (GraphPad Software, USA). The compounds of the present invention have a potency (EC50 or IC50) within a range of about 0.5 nM to about 100 µM. The left shifts for positive or slient allosteric modulators (PAMs or SAMs, respectively) are determined by comparison of EC50 values from agonist dose response curves run in the presence of 10 µM modulator or vehicle (Vanejevs et al., J. Med. Chem., 2008, 51, 634-647).

mGluR5 receptors = molecular target: T2, mGluR5 receptors (Rattus norvegicus, UniProt P31424); test: Cytosolic calcium studies with astrocytes (FLIPR), functional assay of mGluR5 receptors; type: cell-based; conditions: for IC50: Table A2, pre-incubated 10 minutes before L-quisqualate (100 nM), read-out: rIC50
T2 construct: Primary astrocyte cultures are prepared from cortices of newborn rats; endogenous in cells; host or cells: primary cortical astrocytes from Sprague-Dawley rat pups (2-4 d old)
T2 sequence (P31424 21-1203): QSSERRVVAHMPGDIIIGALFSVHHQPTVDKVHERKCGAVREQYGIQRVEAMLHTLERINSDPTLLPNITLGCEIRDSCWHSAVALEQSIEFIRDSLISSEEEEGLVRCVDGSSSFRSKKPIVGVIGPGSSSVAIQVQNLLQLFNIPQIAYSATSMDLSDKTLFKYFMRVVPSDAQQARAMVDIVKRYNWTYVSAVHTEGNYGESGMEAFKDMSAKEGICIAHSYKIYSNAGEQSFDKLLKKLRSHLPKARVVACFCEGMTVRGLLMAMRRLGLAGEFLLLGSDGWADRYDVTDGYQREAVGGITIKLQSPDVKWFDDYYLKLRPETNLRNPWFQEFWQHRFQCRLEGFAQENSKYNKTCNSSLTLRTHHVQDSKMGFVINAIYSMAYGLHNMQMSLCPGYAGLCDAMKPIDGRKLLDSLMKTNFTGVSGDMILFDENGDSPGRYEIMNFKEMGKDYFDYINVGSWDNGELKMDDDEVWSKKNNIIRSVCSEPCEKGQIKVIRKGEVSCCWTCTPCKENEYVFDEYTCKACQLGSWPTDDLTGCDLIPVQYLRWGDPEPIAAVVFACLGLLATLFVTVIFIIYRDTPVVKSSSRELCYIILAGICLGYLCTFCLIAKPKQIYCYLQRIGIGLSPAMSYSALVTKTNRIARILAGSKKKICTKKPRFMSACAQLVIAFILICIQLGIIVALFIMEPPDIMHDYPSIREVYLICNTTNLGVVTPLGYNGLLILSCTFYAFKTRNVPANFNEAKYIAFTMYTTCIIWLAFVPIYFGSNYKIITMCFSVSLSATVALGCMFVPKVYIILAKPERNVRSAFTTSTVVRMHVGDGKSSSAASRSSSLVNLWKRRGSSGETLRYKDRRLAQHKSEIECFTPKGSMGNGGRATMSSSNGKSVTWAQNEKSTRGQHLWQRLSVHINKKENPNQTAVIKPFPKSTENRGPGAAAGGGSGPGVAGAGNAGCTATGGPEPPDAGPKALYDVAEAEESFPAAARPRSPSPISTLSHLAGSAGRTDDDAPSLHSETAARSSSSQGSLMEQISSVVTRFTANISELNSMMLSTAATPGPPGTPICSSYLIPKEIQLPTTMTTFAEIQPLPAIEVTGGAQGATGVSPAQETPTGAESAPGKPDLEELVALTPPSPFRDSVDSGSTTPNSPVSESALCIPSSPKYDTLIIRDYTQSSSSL
Description: Primary astrocyte cultures are prepared from cortices of newborn rats as described by Booher and Sensenbrenner (1972, Neurobiology 2(3):97-105). Briefly, Sprague-Dawley rat pups (2 - 4 d old) are decapitated and neocortices are dissected, disintegrated with a nylon filter (pore size 80 µm) and carefully triturated. The cell suspension is plated on poly-D-lysine pre-coated flasks (Costar, Netherlands) and cultivated in Dulbecco's Modified Eagle's Medium (DMEM, Invitrogen, Germany) supplemented with 10% foetal calf serum (FCS, Sigma, Germany), 4 mM glutamine and 50 µg/ml gentamycin (both Biochrom, Germany) at 37°C in a humidified atmosphere of 5% CO2/ 95% air for 7 days with exchanging the medium at day 2 and 6.
After 7 days in vitro (DIV), cells are shaken overnight at 250 rpm to remove oligodendrocytes and microglia. The next day, astrocytes are rinsed twice with CMF-PBS (calcium- and magnesium-free phosphate buffered saline, Biochrom, Germany), trypsinized and subplated on poly-D-lysine pre-coated 96-well plates (Greiner, Germany) at a density of 40,000 cells/well. 24 h after establishing the secondary culture the astrocytes are rinsed with PBS^++ (phosphate buffered saline, Biochrom, Germany) and fed with astrocyte-defined medium (ADM) consisting of DMEM containing 1x G5-supplement (Invitrogen, Germany), 0.5 µg/ml heparan sulfate, and 1.5 µg/ml fibronectin (both Sigma, Germany) (Miller et al., (1993) Brain Res. 618(1):175-8). 3 days later the medium is exchanged and the cells incubated for another 2-3 days, so that at the time of experiments astrocytes are 14-15 DIV.
The increase of cytosolic calcium after stimulation with the mGluR5 agonist L-quisqualate is measured using a fluorometric imaging plate reader (FLIPR) and the Ca-Kit (both Molecular Devices). Prior to addition of agonist or antagonist the medium is aspirated and cells are loaded for 2 h at RT with 150 µl of loading buffer consisting of Ca-sensitive dye reconstituted in sodium chloride (123 mM), potassium chloride (5.4 mM), magnesium chloride (0.8 mM), calcium chloride (1.8 mM), D-glucose (15 mM), and HEPES (20 mM), pH 7.3. Subsequently, plates are transferred to FLIPR to detect calcium increase with the addition of L-quisqualate (100 nM) measured as relative fluorescence units (RFU). If antagonists are tested, these compounds are pre-incubated for 10 minutes at RT before addition of the respective agonist.
For positive modulators, concentration-response curves for quisqualate are performed in the presence and absence of 10 µM modulator to determine the extent of potentiation / agonist potency increase. Thereafter, concentration-response curves for the positive modulator are performed in the presence of a fixed concentration of quisqualate showing the biggest window for potentiation (normally 10-30 nM).
as §1, §2

[2] = Table A1, left shift of agonist EC50, dose response curves in the presence of 10 µM modulator or vehicle
[3] = Table A1, left shift of quisqualate EC50 in the presence and absence of 10 µM modulator
[4] = Table A1, positive modulators, fixed concentration of quisqualate (normally 10-30 nM), read-out: rEC50
[5] = Table A3 (SAMs / very weak PAMs), agonist EC50 shift with 10 µM modulator or vehicle
[6] = Table A3 (SAMs / very weak PAMs), quisqualate EC50 shift with 10 µM modulator
[7] = Table A3, given in brackets where Ki is n.d., read-out: r EC50

| SMILES | h left shift [1, 2] | r left shift (mGluR5 receptors; [3]) | EC50 (mGluR5 receptors; [4]) [µM] | h left shift [1, 5] | r left shift (mGluR5 receptors; [6]) | EC50 (mGluR5 receptors; [7]) [µM] | EC50 ([1]; Table A1) [µM] | IC50 [1] [µM] | IC50 (mGluR5 receptors) [µM] |
| --- | --- | --- | --- | --- | --- | --- | --- | --- | --- |
| O=C1OC2(CCCc3ncc(C#Cc4ccccc4)cc32)CN1C1CC1 (racemic) [Example 74, (rac)-3-Cyclopropyl-3'-(phenylethynyl)-7',8'-dihydro-6'H-spiro[oxazolidine-5,5'-quinolin]-2-one] | 1.6-fold | 1.5-fold | 0.0101 |  |  |  |  |  |  |
| O=C1OC2(CCCc3ncc(C#Cc4cccc(F)c4)cc32)CN1C1CC1 (racemic) [Example 76, (rac)-3-Cyclopropyl-3'-((3-fluorophenyl)ethynyl)-7',8'-dihydro-6'H-spiro[oxazolidine-5,5'-quinolin]-2-one] |  |  |  | 1.6-fold | 1.4-fold | 0.0505 |  |  |  |
| COC(=O)N1CC2Cc3cc(C#Cc4ccccc4)cnc3C2C1 (racemic) [Example 79, (rac)-Methyl 3-(phenylethynyl)-5a,6,8,8a-tetrahydropyrrolo[3',4':4,5]cyclopenta[1,2-b]pyridine-7(5H)-carboxylate] | 2.6-fold | 4.1-fold | 0.167 |  |  |  | 0.0647 |  |  |
| COC(=O)N1CC[C@H]2CCc3cc(C#Cc4ccccc4)cnc3[C@H]21 (racemic) [Example 80, (rac)-cis-Methyl 7-(phenylethynyl)-2,3,3a,4,5,9b-hexahydro-1H-pyrrolo[3,2-h]quinoline-1-carboxylate] |  |  |  | 1.5-fold | 1.8-fold | 0.0355 |  |  |  |
| CCCN1CC2(CCCc3ncc(C#Cc4ccccc4)cc32)OC1=O (racemic) [Example 82, (rac)-3'-(Phenylethynyl)-3-propyl-7',8'-dihydro-6'H-spiro[oxazolidine-5,5'-quinolin]-2-one] | 1.9-fold | 1.6-fold | 0.233 |  |  |  | 0.727 |  |  |
| CCCN1CCO[C@@H]2c3cc(C#Cc4ccccc4)cnc3CC[C@@H]21 (single isomer, unassigned) [Example 16, cis-9-(Phenylethynyl)-4-propyl-3,4,4a,5,6,10b-hexahydro-2H-[1,4]oxazino[2,3-f]quinoline] | 3.8-fold | 6.0-fold | 0.453 |  |  |  | 0.047 |  |  |
| Cn1ncc2c1-c1cc(C#Cc3ccccc3)cnc1CC2 [Example 28, 1-Methyl-8-(phenylethynyl)-4,5-dihydro-1H-pyrazolo[3,4-f]quinoline] | 2.4-fold | 2.2-fold |  |  |  |  | 0.0192 |  |  |
| COC(=O)N1CC2CCc3ncc(C#Cc4ccccc4)cc3C2C1 (stereo not shown) [Example 30, Methyl 8-(phenylethynyl)-3,3a,4,5-tetrahydro-1H-pyrrolo[3,4-f]quinoline-2(9bH)-carboxylate] | 2.5-fold | 3.0-fold | 0.256 |  |  |  | 0.345 |  |  |
| COC(=O)N1CC2CCc3ncc(C#Cc4cccc(F)c4)cc3C2C1 (stereo not shown) [Example 31, Methyl 8-((3-fluorophenyl)ethynyl)-3,3a,4,5-tetrahydro-1H-pyrrolo[3,4-f]quinoline-2(9bH)-carboxylate] | 2.6-fold | 1.5-fold | 0.261 |  |  |  | 0.333 |  |  |
| O=S(=O)(C1CC1)N1CCc2ncc(C#Cc3ccccc3)cc2C1 [Example 38, 6-(Cyclopropylsulfonyl)-3-(phenylethynyl)-5,6,7,8-tetrahydro-1,6-naphthyridine] | 1.7-fold | 2.5-fold | 0.481 |  |  |  |  |  |  |
| O=C(Oc1ccccc1)N1CCc2ncc(C#Cc3ccccc3)cc2C1 [Example 43, Phenyl 3-(phenylethynyl)-7,8-dihydro-1,6-naphthyridine-6(5H)-carboxylate] | 2.4-fold |  | 0.038 |  |  |  | 0.381 |  |  |
| O=C(N1CCc2ncc(C#Cc3ccccc3)cc2C1)N(CC(F)(F)F)CC(F)(F)F [Example 49, 3-(Phenylethynyl)-N,N-bis(2,2,2-trifluoroethyl)-7,8-dihydro-1,6-naphthyridine-6(5H)-carboxamide] | 1.7-fold | 2.3-fold | 0.0118 |  |  |  |  |  |  |

Second part, the compound after the results:

| h left shift [1, 2] | r left shift (mGluR5 receptors; [3]) | EC50 (mGluR5 receptors; [4]) [µM] | h left shift [1, 5] | r left shift (mGluR5 receptors; [6]) | EC50 (mGluR5 receptors; [7]) [µM] | EC50 ([1]; Table A1) [µM] | IC50 [1] [µM] | IC50 (mGluR5 receptors) [µM] | SMILES |
| --- | --- | --- | --- | --- | --- | --- | --- | --- | --- |
| 2.3-fold | 2.8-fold | 0.0679 |  |  |  | 0.171 |  |  | CC(C)(C)C(=O)N1CCc2ncc(C#Cc3ccccc3)cc2C1 [Example 34, 2,2-Dimethyl-1-(3-(phenylethynyl)-7,8-dihydro-1,6-naphthyridin-6(5H)-yl)propan-1-one] |
| 2.4-fold | 2.7-fold | 4.04 |  |  |  | 0.917 |  |  | CC1(C(=O)N2CCc3ncc(C#Cc4ccccc4)cc3C2)COC1 [Example 36, (3-Methyloxetan-3-yl)(3-(phenylethynyl)-7,8-dihydro-1,6-naphthyridin-6(5H)-yl)methanone] |
| 2.2-fold | 1.2-fold | 0.00436 |  |  |  | 0.146 |  |  | CC(C)COC(=O)N1CCc2ncc(C#Cc3ccccc3)cc2C1 [Example 41, Isobutyl 3-(phenylethynyl)-7,8-dihydro-1,6-naphthyridine-6(5H)-carboxylate] |
| 3.1-fold | 1.9-fold | 0.131 |  |  |  | 0.281 |  |  | CC(C)(C)OC(=O)N1CCc2ncc(C#Cc3ccccc3)cc2C1 [Example 42, tert-Butyl 3-(phenylethynyl)-7,8-dihydro-1,6-naphthyridine-6(5H)-carboxylate] |
|  |  |  |  |  |  |  | 0.114 | 0.0559 | CN(C)C(=O)N1CCc2ncc(C#Cc3cccc(F)c3)cc2C1 [Example 45, 3-((3-Fluorophenyl)ethynyl)-N,N-dimethyl-7,8-dihydro-1,6-naphthyridine-6(5H)-carboxamide] |
|  |  |  |  |  |  |  | 0.0508 | 0.0208 | CN(C)C(=O)N1CCc2ncc(C#Cc3cccc(C#N)c3)cc2C1 [Example 46, 3-((3-Cyanophenyl)ethynyl)-N,N-dimethyl-7,8-dihydro-1,6-naphthyridine-6(5H)-carboxamide] |
